Measurements taken from USRE47785E1, “7-{(3S,4S)-3-[(cyclopropylamino)methyl]-4-fluoropyrrolidine-1-yl}-6-fluoro-1-(2-fluoroethyl)-8-methoxy-4-oxo-1,4-dihydroquinoline-3-carboxylic acid crystal” (KYORIN PHARMACEUTICAL CO., LTD., priority 2011, dated 2019).
Like-named read-outs stand apart in the source and are kept apart here.

Tests used:
[1] = Test of storage stability against light (D65 fluorescent lamp irradiation)
[2] = Test of solubility in water
[3] = Storage stability test (40° C., 75% RH, open or closed, opaque containers, HPLC); conditions: for amount of remaining unaltered crystals, INITIAL: 40° C./75% RH storage test
Excerpt: HPLC conditions: a column, which is Inertsil ODS-3V manufactured by GL Sciences Inc., and has an inner diameter of 4.6 mm, a length of 15 cm, and a particle diameter of […] was used. […] The measurement wavelength used was 294 nm.

SMILES	melting point	amount of remaining unaltered crystals, total irradiation amount 110,000 lx·hrs [1]	change in the amount of unaltered crystals at 110,000 lx·hrs (in words) [1]	amount of remaining unaltered crystals, total irradiation amount 220,000 lx·hrs [1]	amount of remaining unaltered crystals, total irradiation amount 530,000 lx·hrs [1]	amount of remaining unaltered crystals, total irradiation amount 860,000 lx·hrs [1]	amount of remaining unaltered crystals, total irradiation amount 1,280,000 lx·hrs ([1]; 1,280,000 lx·hrs)	change in the amount of crystals at 1,280,000 lx·hrs (in words) ([1]; 1,280,000 lx·hrs)	amount of remaining unaltered crystals, INITIAL [1]	SOLUBILITY [2] [mg/mL]	amount of remaining unaltered crystals, INITIAL [3]	change in the amount of unaltered crystals at 4 weeks (in words) ([3]; 40° C./75% RH)	amount of remaining unaltered crystals, 4 WEEKS CLOSED CONDITION ([3]; 40° C./75% RH)	amount of remaining unaltered crystals, 4 WEEKS OPEN CONDITION ([3]; 40° C./75% RH)	change in the amount of unaltered crystals at 2 weeks (in words) ([3]; 40° C./75% RH, 2 weeks)	amount of remaining unaltered crystals, 2 WEEKS CLOSED CONDITION ([3]; 40° C./75% RH, 2 weeks)	amount of remaining unaltered crystals, 2 WEEKS OPEN CONDITION ([3]; 40° C./75% RH, 2 weeks)	SOLUBILITY ([2]; Methanesulfonate Salt) [mg/mL]	SOLUBILITY ([2]; water, SOLUBILITY) [mg/mL]	reduction in the amount of crystals at 1,280,000 lx·hrs ([1]; 1,280,000 lx·hrs) [%]
COc1c(N2C[C@H](CNC3CC3)[C@H](F)C2)c(F)cc2c(=O)c(C(=O)O)cn(CCF)c12.CS(=O)(=O)O (hydrate or solvate) [CRYSTALS OF METHANESULFONATE SALT, 7-{(3S,4S)-3-[(cyclopropylamino)methyl]-4-fluoropyrrolidine-1-yl}-6-fluoro-1-(2-fluoroethyl)-8-methoxy-4-oxo-1,4-dihydroquinoline-3-carboxylic Acid Methanesulfonate Salt]	207 to 210 °C (dec.)	–	–	–	–	–	–	–	–	–	–	–	–	–	–	–	–	–	–	–
COc1c(N2C[C@H](CNC3CC3)[C@H](F)C2)c(F)cc2c(=O)c(C(=O)O)cn(CCF)c12.Cl [CRYSTALS A, 7-{(3S,4S)-3-[(cyclopropylamino)methyl]-4-fluoropyrrolidine-1-yl}-6-fluoro-1-(2-fluoroethyl)-8-methoxy-4-oxo-1,4-dihydroquinoline-3-carboxylic Acid Hydrochloride Salt (Crystals A)]	–	97.74	almost no change	97.43	97.32	96.32	91.33	found to decrease	98.68	>10	99.52	no change	99.52	99.51	–	–	–	–	–	–
COc1c(N2C[C@H](CNC3CC3)[C@H](F)C2)c(F)cc2c(=O)c(C(=O)O)cn(CCF)c12.Cl.O [CRYSTALS B, 7-{(3S,4S)-3-[(cyclopropylamino)methyl]-4-fluoropyrrolidine-1-yl}-6-fluoro-1-(2-fluoroethyl)-8-methoxy-4-oxo-1,4-dihydroquinoline-3-carboxylic Acid Hydrochloride Salt Hydrate (Crystals B)]	–	–	–	–	–	–	–	–	–	>10	99.59	no change	99.65	99.64	–	–	–	–	–	–
COc1c(N2C[C@H](CNC3CC3)[C@H](F)C2)c(F)cc2c(=O)c(C(=O)O)cn(CCF)c12.Cl.O [CRYSTALS C, 7-{(3S,4S)-3-[(cyclopropylamino)methyl]-4-fluoropyrrolidine-1-yl}-6-fluoro-1-(2-fluoroethyl)-8-methoxy-4-oxo-1,4-dihydroquinoline-3-carboxylic Acid Hydrochloride Salt Hydrate (Crystals C)]	–	–	–	–	–	–	–	–	–	–	99.75	–	–	–	found to decrease	99.37	99.47	–	–	–
COc1c(N2C[C@H](CNC3CC3)[C@H](F)C2)c(F)cc2c(=O)c(C(=O)O)cn(CCF)c12.CS(=O)(=O)O [CRYSTALS OF METHANESULFONATE SALT, 7-{(3S,4S)-3-[(cyclopropylamino)methyl]-4-fluoropyrrolidine-1-yl}-6-fluoro-1-(2-fluoroethyl)-8-methoxy-4-oxo-1,4-dihydroquinoline-3-carboxylic Acid Methanesulfonate Salt]	–	98.01	almost no change	97.5	96.91	95.37	95.11	found to decrease	98.83	–	95.18	no change	96.09	95.89	–	–	–	>10	≥ 10	–
COc1c(N2C[C@H](CNC3CC3)[C@H](F)C2)c(F)cc2c(=O)c(C(=O)O)cn(CCF)c12 [FREE CRYSTALS, 7-{(3S,4S)-3-[(cyclopropylamino)methyl]-4-fluoropyrrolidine-1-yl}-6-fluoro-1-(2-fluoroethyl)-8-methoxy-4-oxo-1,4-dihydroquinoline-3-carboxylic acid]	–	77.71	significantly decrease	75.31	66.34	49.82	44.85	–	96.12	<1	95.18	–	95.00	95.35	–	95.13	95.27	–	≤ 1	≥ 50
